Test results as given in patent US20070196856A1, “Methods of determining activity of ryanodine receptor modulators” (Allergan, Inc., priority 2006, published 2007).

Test system: ryanodine receptors

O=C1CN(/N=C/c2ccc(-c3ccc([N+](=O)[O-])cc3)o2)C(O)=N1 [dantrolene, Dantrolene]
caffeine-induced Ca++ release (1.5 mM caffeine + 20 mM dantrolene, 5 minutes dantrolene pretreatment, retinal ganglion cells, FIG. 1 trace 2): blocked
caffeine effect after washout (washout of dantrolene with 12.5 mM caffeine alone, FIG. 1 trace 3): recovered partially
